Results published in patent US20130266636A1, “METHODS FOR BLOCKING CELL PROLIFERATION AND TREATING DISEASES AND CONDITIONS RESPONSIVE TO CELL GROWTH INHIBITION” (THE REGENTS OF THE UNIVERSITY OF CALIFORNIA, priority 2010, published 2013).
“Also recorded” adds a separate entry of the source.

Key:
[1] = tested on: human breast (MDA-MB-231) carcinoma cell line; experiment: Cell viability assay in MDA-MB-231 cells; type: cell-based; settings: for cell viability / potency relative to KG5 (cell viability EC50s): MDA-MB-231; for EC50: MDA-MB-231 breast cancer cell viability assays
[2] = tested on: human breast (T47D) carcinoma cell line; experiment: Cell viability assay in T47D cells; type: cell-based; settings: for cell viability / potency relative to KG5 (cell viability EC50s): T47D; for EC50: T47D breast cancer cells
[3] = tested on: human lung (A549) carcinoma cell line; experiment: Cell viability assay in A549 cells; type: cell-based; settings: for cell viability / potency relative to KG5 (cell viability EC50s): A549; for EC50: A549 lung cancer cells
[4] = tested on: A549 cells; experiment: Cell proliferation assay in A549 cells; type: cell-based, human
[5] = tested on: XPA-1 cells; experiment: Cell cycle analysis, bright field and confocal microscopy of XPA-1 cells; type: cell-based, human; settings: XPA-1 cells, 20 hours
Method: FIG. 38. […] FIG. 38(a) Bright field images (scale bar, 20 μm), cell cycle analysis and confocal microscopy images (scale bar, 10 μm, laminB in red and DNA in blue) of XPA-1 cells treated for 20 hours with the allosteric RAF inhibitor KG5, the ATP-competitive inhibitor Sorafenib, the MEK inhibitor PD0325901, the control compound KG1 at 5 μM or paclitaxel at 200 nM. Cells were harvested after 20 hours and the cell cycle stage was determined by flow cytometry and confocal microscopy. White arrows indicate cells arrested at pro-metaphase. Scale bars, 10 μm. FIG. 38(b) Representative confocal microscopy images of untreated XPA-1 tumor cells undergoing mitosis (left image) and XPA-1 cell arrested with KG5 at pro-metaphase (right image). Cells were stained with α-tubulin in red and DNA in blue. Scale bar, 10 μm. FIG. 38(c) XPA-1 cells transfected with a vector control or active MEK were treated with 1 μM KG5 for 20 hours or left untreated and the G2/M population was quantified by flow cytometry. Error bars represent s.d. (n=3); * two tailed p value=0.00063 using a Mann Whitney U test. FIG. 38(d) Immunoblot analysis of XPA-1 cells untreated or treated with 1 μM KG5 for 18 hours. Data are representative of four independent experiments. […] Error bars represent s.d. (n=3); * two tailed p value=0.010 using a Mann Whitney U test. Inset, Immunoblot analysis of HCT-116 cells untreated or treated with 1 μM KG5 for 18 hours.
FIG. 39. […] FIG. 39 graphically illustrates cell cycle analysis of XPA-1 cells treated with the allosteric RAF inhibitor KG5, the microtubule stabilizer paclitaxel, or the ATP-competitive RAF inhibitors sorafenib, L-779450, GW 5074, and ZM-336372. Cells were harvested after 6, 18, 24, 48 and 72 hours and the percentages of cells in G2/M and SubG1 were determined by flow cytometry. Data are representative of three independent experiments.
Cell cycle analysis was performed by flow cytometry following propidium iodide staining. Briefly, cells were harvested, fixed with ice cold methanol, treated for 45 min with 10 μg/ml of RNase and resuspended in PBS containing 10 μg/ml of PI, and analyzed by flow cytometry. Cell cycle analysis was performed in cells treated for 18 hours with the allosteric RAF inhibitor KG5, the ATP-competitive RAF inhibitors: sorafenib, L-779450, GW5074, and ZM-336372, the MEK inhibitor (PD0325901) at […] concentration or paclitaxel at 100 nM.

[6] = target: CRAF (Homo sapiens, UniProt P04049); experiment: CRAF localization to the mitotic spindle, confocal microscopy of XPA-1 cells; type: cell-based; set-up: total CRAF and total MEK of lysates from XPA-1 cells treated with PD0325901, Sorafenib, L-779450, PLX4720, KG5 or KG1; endogenous in cells; host or cells: XPA-1
Chain of CRAF (P04049 whole entry): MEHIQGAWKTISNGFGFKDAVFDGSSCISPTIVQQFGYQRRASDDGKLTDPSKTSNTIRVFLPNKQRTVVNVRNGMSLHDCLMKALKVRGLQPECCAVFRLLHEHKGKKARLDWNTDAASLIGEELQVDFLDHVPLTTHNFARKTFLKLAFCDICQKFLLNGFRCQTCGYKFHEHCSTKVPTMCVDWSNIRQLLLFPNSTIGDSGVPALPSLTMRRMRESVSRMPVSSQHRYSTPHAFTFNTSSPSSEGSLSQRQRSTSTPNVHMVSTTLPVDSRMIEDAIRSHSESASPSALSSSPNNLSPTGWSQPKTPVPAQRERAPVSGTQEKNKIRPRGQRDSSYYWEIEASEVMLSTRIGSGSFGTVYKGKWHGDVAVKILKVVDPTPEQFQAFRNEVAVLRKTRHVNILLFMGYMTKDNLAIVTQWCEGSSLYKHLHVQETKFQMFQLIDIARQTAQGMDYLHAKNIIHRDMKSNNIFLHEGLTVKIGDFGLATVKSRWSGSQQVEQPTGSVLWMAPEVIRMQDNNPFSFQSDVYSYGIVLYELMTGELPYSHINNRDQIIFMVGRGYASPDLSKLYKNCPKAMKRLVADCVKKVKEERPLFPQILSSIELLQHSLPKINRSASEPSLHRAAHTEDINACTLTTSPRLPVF
From the text: FIG. 35. […] Data are representative of three independent experiments. FIG. 35 (b) Confocal microscopy images of human pancreatic XPA-1 and glioblastoma U251 cells during mitosis, stained for phospho-5338 CRAF (in green), α-tubulin (in red) and DNA (TOPRO-3™ in blue). Scale bar, 10 μm. White arrows indicate localization of phospho-S338 CRAF at the mitotic spindle. FIG. 35 (c) Immunoblot analysis of γ-tubulin immunoprecipitates from human colon carcinoma HCT-116 cells asynchronized and synchronized at pro-metaphase. Data are representative of three independent experiments. FIG. 35(d) Immunohistochemical staining of phospho-S338 CRAF in tumor biopsies from breast cancer patients. Scale bar, 10 μm. FIG. 35(e) Confocal microscopy images of XPA-1 cells treated with KG5, sorafenib, ZM336372, L779450 or paclitaxel and stained for CRAF (in green), γ-tubulin (in red) and DNA (TOPRO-3™ in blue). Scale bar, 10 μm. White arrows indicate localization of CRAF at the spindle pole. White circle indicates the absence of CRAF at the spindle pole.
Cells attached to cover-slips were fixed with cold methanol and permeabilized in PBS containing 0.1% triton for two minutes and blocked for 60 minutes, at room temperature with 2% BSA in PBS. Cells were stained with antibodies to CRAF (Abcam), phospho-serine 338 CRAF (SantaCruz), phospho-serine 338 CRAF (Thermo Scientific), a tubulin (Calbiochem), γ tubulin (Abcam), laminB (SantaCruz), Plk1 (Abcam), phospho-T210 Plk1 (Abcam), or phospho-T288 Aurora A (cell signaling). All primary antibodies were used at 1:100 dilution, for two hours at room temperature. After washing several times with PBS, cells were stained for two hours at room temperature, with secondary antibody specific for mouse, rabbit or goat (Invitrogen), as appropriate, diluted 1:300 and co-incubated with the DNA dye TOPRO-3™ (1:500) (Invitrogen). Samples were mounted in VECTASHIELD™ hard-set mounting media (Vector Laboratories) and imaged on a Nikon ECLIPSE C1™ confocal microscope with a 1.4 NA 60× oil-immersion lens, using minimum pinhole (30 μm). Images were captured using EZ-C1-3.50 imaging software.

potency relative to KG5 (cell viability EC50s) [1] | EC50 [1] | potency relative to KG5 (cell viability EC50s) [2] | EC50 [2] | potency relative to KG5 (cell viability EC50s) [3] | EC50 [3] | SMILES | cell viability [1] | cell viability [2] | cell viability [3] | cell proliferation [4] | arrest at pro-metaphase (confocal microscopy) [5] | CRAF localization to the mitotic spindle [6]
more potent than KG5 | approach picomolar (pM) EC50s |  |  |  |  | CSc1nc(N)cc(Oc2ccc(-c3nnc(Nc4ccc(C)c(C)c4)[nH]3)cc2)n1 [H3-9, 6-(4-{5-[(3,4-dimethylphenyl)amino]-4H-1,2,4-triazol-3-yl}phenoxy)-2-(methylsulfanyl)pyrimidin-4-amine] | decrease cell viability |  |  |  |  | 
more potent than KG5 | approach picomolar (pM) EC50s |  |  |  |  | CSc1nc(N)cc(Oc2ccc(-c3nnc(Nc4cccc(C)c4C)[nH]3)cc2)n1 [H3-11, 6-(4-{5-[(2,3-dimethylphenyl)amino]-4H-1,2,4-triazol-3-yl}phenoxy)-2-(methylsulfanyl)pyrimidin-4-amine] | decrease cell viability |  |  |  |  | 
more potent than KG5 | approach picomolar (pM) EC50s |  |  |  |  | CCOc1nc(N)cc(Oc2ccc(-c3nnc(Nc4cccc(C(F)(F)F)c4)[nH]3)cc2)n1 [K1-72, 2-ethoxy-6-[4-(5-{[3-(trifluoromethyl)phenyl]amino}-4H-1,2,4-triazol-3-yl)phenoxy]pyrimidin-4-amine] | decrease cell viability |  |  |  |  | 

Further lines, the molecule ahead of its results:

SMILES | potency relative to KG5 (cell viability EC50s) [1] | EC50 [1] | potency relative to KG5 (cell viability EC50s) [2] | EC50 [2] | potency relative to KG5 (cell viability EC50s) [3] | EC50 [3] | cell viability [1] | cell viability [2] | cell viability [3] | cell proliferation [4] | arrest at pro-metaphase (confocal microscopy) [5] | CRAF localization to the mitotic spindle [6]
CSc1nc(N)cc(Oc2ccc(-c3nnc(Nc4cc(C)ccc4C)[nH]3)cc2)n1 [H3-3, 6-(4-{5-[(2,5-dimethylphenyl)amino]-4H-1,2,4-triazol-3-yl}phenoxy)-2-(methylsulfanyl)pyrimidin-4-amine] | more potent than KG5 | approach picomolar (pM) EC50s | more potent than KG5 | approach picomolar (pM) EC50s | more potent than KG5 | approach picomolar (pM) EC50s | decrease cell viability | decrease cell viability | decrease cell viability |  |  | 
CSc1nc(N)cc(Oc2ccc(-c3nnc(Nc4cc(C)cc(C)c4)[nH]3)cc2)n1 [H3-7, 6-(4-{5-[(3,5-dimethylphenyl)amino]-4H-1,2,4-triazol-3-yl}phenoxy)-2-(methylsulfanyl)pyrimidin-4-amine] | more potent than KG5 | approach picomolar (pM) EC50s | more potent than KG5 | approach picomolar (pM) EC50s | more potent than KG5 | approach picomolar (pM) EC50s | decrease cell viability | decrease cell viability | decrease cell viability |  |  | 
CSc1nc(N)cc(Oc2ccc(-c3nnc(Nc4cccc5c4CCCC5)[nH]3)cc2)n1 [H3-21, 2-(methylsulfanyl)-6-{4-[5-(5,6,7,8-tetrahydronaphthalen-1-ylamino)-4H-1,2,4-triazol-3-yl]phenoxy}pyrimidin-4-amine] | more potent than KG5 | approach picomolar (pM) EC50s | more potent than KG5 | approach picomolar (pM) EC50s | more potent than KG5 | approach picomolar (pM) EC50s | decrease cell viability | decrease cell viability | decrease cell viability |  |  | 
CCCS(=O)(=O)Nc1ccc(F)c(C(=O)c2c[nH]c3ncc(-c4ccc(Cl)cc4)cc23)c1F [PLX4032] |  |  |  |  |  |  |  |  |  | induce proliferation |  | 
CNC(=O)c1cc(Oc2ccc(NC(=O)Nc3ccc(Cl)c(C(F)(F)F)c3)cc2)ccn1 [Sorafenib] |  |  |  |  |  |  |  |  |  | induce proliferation | does not arrest cells at pro-metaphase | does not prevent CRAF localization to the mitotic spindle or midbodies
CC(=O)O[C@H]1C(=O)[C@@]2(C)[C@H]([C@H](OC(=O)c3ccccc3)[C@]3(O)C[C@H](OC(=O)[C@H](O)[C@@H](NC(=O)c4ccccc4)c4ccccc4)C(C)=C1C3(C)C)[C@]1(OC(C)=O)CO[C@@H]1C[C@@H]2O [paclitaxel] |  |  |  |  |  |  |  |  |  |  | arrests cells at pro-metaphase | does not affect CRAF localization to the mitotic spindle; also recorded: CRAF remained localized to the mitotic spindle
